Experimental data as given in ChEMBL document CHEMBL5352470, “RS6077 induces mitotic arrest and selectively activates cell death in human cancer cell lines and in a lymphoma tumor in vivo” (Eur J Med Chem, 2023).
The source made the active and inactive calls. The rule behind the calls is not given here.

Assays:
[1] = Toxicity in human T cells derived from human PBMC assessed as viable cells at 0.1 uM measured for 72 hrs by annexin V-FITC and PI staining based flow cytometry analysis (reference value: 66.5 to 77.5 %); format: cell-based, T-cell; conditions: read-out: Activity
[2] = test system: AHH-1; assay: Induction of cell cycle arrest in human AHH-1 cells assessed as accumulation of cells at G2/M phase at 1000 nM incubated for 72 hrs by annexin V-FITC and PI staining based flow cytometry analysis; format: functional
[3] = Toxicity in human T cells derived from human PBMC assessed as viable cells at 1 uM measured for 72 hrs by annexin V-FITC and PI staining based flow cytometry analysis (reference value: 66.5 to 77.5 %); format: cell-based, T-cell; conditions: read-out: Activity
[4] = test system: AHH-1; assay: Induction of cell cycle arrest in human AHH-1 cells assessed as accumulation of cells at S phase at 100 nM incubated for 72 hrs by annexin V-FITC and PI staining based flow cytometry analysis; format: functional
[5] = test system: TERT-RPE1; assay: Induction of cell cycle arrest in human TERT-RPE1 cells assessed as accumulation of cells at S phase at 2500 nM incubated for 72 hrs by annexin V-FITC and PI staining based flow cytometry analysis; format: functional
[6] = Toxicity in human T cells derived from human PBMC assessed as viable cells at 1 uM measured for 48 hrs by annexin V-FITC and PI staining based flow cytometry analysis (reference value: 77.5 to 79.5 %); format: cell-based, T-cell; conditions: read-out: Activity
[7] = test system: AHH-1; assay: Induction of cell cycle arrest in human AHH-1 cells assessed as accumulation of cells at G2/M phase at 2500 nM incubated for 72 hrs by annexin V-FITC and PI staining based flow cytometry analysis; format: functional
[8] = test system: HeLa; assay: Antiproliferative activity against human HeLa cells assessed as inhibition of cell growth measured for 48 hrs by MTT assay; format: functional, cell-based
[9] = test system: AHH-1; assay: Induction of cell cycle arrest in human AHH-1 cells assessed as accumulation of cells at S phase at 2500 nM incubated for 72 hrs by annexin V-FITC and PI staining based flow cytometry analysis; format: functional
[10] = Metabolic stability in human liver microsome assessed as intrinsic clearance measured upto 60 mins by LC-MS/MS analysis; format: ADME; conditions: liver microsomes, read-out: CLH
[11] = Toxicity in human T cells derived from human PBMC assessed as necrotic cells at 0.1 uM measured for 72 hrs by annexin V-FITC and PI staining based flow cytometry analysis (reference value: 0.48 to 0.56 %); conditions: t-cell
[12] = test system: TERT-RPE1; assay: Induction of apoptosis in human RPE-1 cells assessed as early apoptotic cells at 100 to 2500 nM measured after 72 hrs by annexin V-FITC and PI staining based flow cytometry analysis; format: functional, cell-based; conditions: dose 100-2500 nM
[13] = test system: MCF7; assay: Antiproliferative activity against human MCF7 cells assessed as inhibition of cell growth measured for 48 hrs by MTT assay; format: functional, cell-based; conditions: MCF7, 48 h
[14] = test system: AHH-1; assay: Induction of cell cycle arrest in human AHH-1 cells assessed as accumulation of cells at S phase at 1000 nM incubated for 72 hrs by annexin V-FITC and PI staining based flow cytometry analysis; format: functional
[15] = Metabolic stability in human liver microsome assessed as half life measured upto 60 mins by LC-MS/MS analysis; format: ADME; conditions: liver microsomes
[16] = Toxicity in human T cells derived from human PBMC assessed as necrotic cells at 0.1 uM measured for 48 hrs by annexin V-FITC and PI staining based flow cytometry analysis (reference value: 0.31 to 0.48 %); conditions: t-cell
[17] = target: Tubulin; assay: Inhibition of tubulin polymerization (unknown origin) incubated for 20 mins in presence of GTP by spectrophotometric analysis; format: protein-complex assay, Homo sapiens
[18] = Metabolic stability in mouse liver microsome assessed as intrinsic clearance measured upto 60 mins by LC-MS/MS analysis; format: ADME; conditions: liver microsomes, read-out: CLH
[19] = Toxicity in human T cells derived from human PBMC assessed as early apoptotic cells at 0.1 uM measured for 72 hrs by annexin V-FITC and PI staining based flow cytometry analysis (reference value: 9.70 to […]); conditions: t-cell
[20] = test system: TERT-RPE1; assay: Induction of cell cycle arrest in human TERT-RPE1 cells assessed as accumulation of cells at G1 phase at 1000 nM incubated for 72 hrs by annexin V-FITC and PI staining based flow cytometry analysis; format: functional
[21] = test system: TMD8; assay: Antiproliferative activity against human TMD8 cells assessed as inhibition of cell growth measured for 72 hrs by MTT assay; format: functional, cell-based; conditions: TMD8, 72 h
[22] = test system: TERT-RPE1; assay: Induction of cell cycle arrest in human RPE-1 cells assessed as accumulation of cells at G2 phase incubated for 72 hrs by annexin V-FITC and PI staining based flow cytometry analysis; format: functional
[23] = Toxicity in human T cells derived from human PBMC assessed as late apoptotic cells at 1 uM measured for 48 hrs by annexin V-FITC and PI staining based flow cytometry analysis (reference value: 13.5 to […] %); conditions: t-cell
[24] = test system: HeLa; assay: Induction of cell cycle arrest in human HeLa cells assessed as accumulation of cells at G2/M phase at 2500 nM incubated for 72 hrs by annexin V-FITC and PI staining based flow cytometry analysis; format: functional
[25] = test system: AHH-1; assay: Induction of cell cycle arrest in human AHH-1 cells assessed as accumulation of cells at G2/M phase at 100 nM incubated for 72 hrs by annexin V-FITC and PI staining based flow cytometry analysis; format: functional
[26] = test system: AHH-1; assay: Induction of apoptosis in human AHH-1 cells at 1000 to 2500 nM measured after 72 hrs by annexin V-FITC and PI staining based flow cytometry analysis; format: functional; conditions: dose 1000-2500 nM
[27] = Toxicity in human T cells derived from human PBMC assessed as early apoptotic cells at 1 uM measured for 72 hrs by annexin V-FITC and PI staining based flow cytometry analysis (reference value: 9.70 to […]); conditions: t-cell
[28] = Toxicity in NOD/SCID mouse assessed as reduction in body condition score at 100 mg/kg, po administered for 5 days; format: organism-based; conditions: in vivo, 120 h, time 5 day
[29] = test system: Z-138; assay: Antiproliferative activity against human Z138 cells assessed as inhibition of cell growth measured for 72 hrs by MTT assay; format: functional, cell-based; conditions: Z-138, 72 h
[30] = test system: TMD8; assay: Antitumor activity against human TMD8 cells xenografted in NOD/SCID mouse assessed as reduction in tumor volume at 100 mg/kg, po administered for 5 days and measured on day 1; format: functional; conditions: time 1 day
[31] = test system: HeLa; assay: Induction of cell cycle arrest in human HeLa cells assessed as accumulation of cells at G1 phase at 1000 nM incubated for 72 hrs by annexin V-FITC and PI staining based flow cytometry analysis; format: functional
[32] = Toxicity in human T cells derived from human PBMC assessed as viable cells at 0.1 uM measured for 48 hrs by annexin V-FITC and PI staining based flow cytometry analysis (reference value: 77.5 to 79.5 %); format: cell-based, T-cell; conditions: read-out: Activity
[33] = test system: TERT-RPE1; assay: Induction of cell cycle arrest in human TERT-RPE1 cells assessed as accumulation of cells at G1 phase at 2500 nM incubated for 72 hrs by annexin V-FITC and PI staining based flow cytometry analysis; format: functional
[34] = test system: TERT-RPE1; assay: Induction of cell cycle arrest in human TERT-RPE1 cells assessed as accumulation of cells at G1 phase at 100 nM incubated for 72 hrs by annexin V-FITC and PI staining based flow cytometry analysis; format: functional

For `COc1cc(C(=O)c2ccn(-c3ncnc4[nH]ccc34)c2)cc(OC)c1OC`, the viability at 72 h, 0.1 µM [1] was 68.1%, the Activity [2] was 70.8% and the viability at 72 h, 1 µM [3] was 64.7%. For the same molecule, the Activity [4] was 27.2%, the Activity [5] was 7.3% and the viability at 48 h, 1 µM [6] was 74.9%. For the same molecule, the Activity [7] was 69.7%, the IC50 [8] was 35.8 nM and the Activity [9] was 19.4%. For the same molecule, the microsomal CLint [10] was 28 µL/min/mg, the Activity [11] was 0.48% and the Activity [12] was “Active”. For the same molecule, the IC50 [13] was 38 nM, the Activity [14] was 18.4% and the half-life [15] was 50.5 min. It also gave an Activity [16] of 0.28%, an IC50 [17] of 280 nM and a microsomal CLint [18] of 96 µL/min/mg. It also gave an Activity [19] of 9.7%, an Activity [20] of 13.3% and an IC50 [21] of 21.6 nM. For the same molecule, the Activity [22] was “inactive”, the Activity [23] was 12.7% and the Activity [24] was 34.4%. For the same molecule, the Activity [25] was 32%, the Activity [26] was 80% and the Activity [27] was 11.6%. For the same molecule, the Activity [28] was “Non-Toxic”, the IC50 [29] was 23.6 nM and the Activity [30] was 252 mm3. For the same molecule, the Activity [31] was 22.2%, the viability at 48 h, 0.1 µM [32] was 75.4% and the Activity [33] was 17.6%. It also gave an Activity [34] of 13.9%.
